Experiments:
BALB/3T3 = experiment: Cytotoxicity against mouse BALB/3T3 cells incubated for 72 hrs by sulforhodamine B assay; assay type: cell-based; settings: BALB/3T3, 72 h
[1] = Antiproliferative activity against human LoVo/DX cells incubated for 72 hrs by sulforhodamine B assay; assay type: functional, cell-based
A549 [2] = experiment: Antiproliferative activity against human A549 cells incubated for 72 hrs by sulforhodamine B assay; assay type: functional, cell-based; settings: A549, 72 h
LoVo = experiment: Antiproliferative activity against human LoVo cells incubated for 72 hrs by sulforhodamine B assay; assay type: functional, cell-based
MCF7 [3] = experiment: Antiproliferative activity against human MCF7 cells incubated for 72 hrs by sulforhodamine B assay; assay type: functional, cell-based; settings: MCF7, 72 h
HeLa = experiment: Cytotoxicity against human HeLa cells after 24 to 72 hrs by Cell Titer Blue assay; assay type: cell-based
[4] = molecular target: T1, carboxylesterase 1 (CES1) (Homo sapiens, UniProt P23141); experiment: Substrate activity at human carboxylesterase 1 expressed in baculovirus infected Sf9 insect cells assessed as enzyme-catalysed compound cleavage incubated for 2 hrs by HPLC analysis; assay type: ADME; settings: read-out: Activity
T1 sequence (P23141 whole entry): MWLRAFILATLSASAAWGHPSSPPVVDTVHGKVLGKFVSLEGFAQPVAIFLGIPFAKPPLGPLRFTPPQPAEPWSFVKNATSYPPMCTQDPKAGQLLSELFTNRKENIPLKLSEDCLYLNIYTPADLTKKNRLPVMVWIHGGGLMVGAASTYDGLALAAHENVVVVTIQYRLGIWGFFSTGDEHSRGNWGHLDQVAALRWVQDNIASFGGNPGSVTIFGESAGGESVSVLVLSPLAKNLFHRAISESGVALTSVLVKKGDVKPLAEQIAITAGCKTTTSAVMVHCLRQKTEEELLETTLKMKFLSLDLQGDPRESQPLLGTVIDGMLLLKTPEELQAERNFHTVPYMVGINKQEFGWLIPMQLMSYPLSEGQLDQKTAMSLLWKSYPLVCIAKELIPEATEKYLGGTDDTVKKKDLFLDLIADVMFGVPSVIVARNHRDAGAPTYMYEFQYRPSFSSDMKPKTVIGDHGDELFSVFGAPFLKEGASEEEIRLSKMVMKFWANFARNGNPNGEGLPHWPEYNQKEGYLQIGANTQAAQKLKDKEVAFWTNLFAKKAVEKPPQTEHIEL

MCF7 [5] = experiment: Cytotoxicity against human MCF7 cells; assay type: functional, cell-based
A2780 = experiment: Cytotoxicity against human A2780 cells; assay type: functional, cell-based
A549 [6] = experiment: Cytotoxicity against human A549 cells; assay type: functional, cell-based
Bel-7402 = experiment: Cytotoxicity against human BEL7402 cells; assay type: functional, cell-based
[7] = Antiproliferative activity against human ALL5 cells incubated for 120 hrs by MTT assay; assay type: functional, cell-based; settings: ALL5, 120 h
P388 = experiment: Antiproliferative activity against mouse P388 cells incubated for 72 hrs by Coulter counter method; assay type: functional, cell-based; settings: P388, 72 h
CCRF-CEM = experiment: Cytotoxicity against human CEM cells incubated for 48 to 72 hrs by Cell Titer 96 aqueous one solution cell proliferation assay; assay type: functional, cell-based

| Structure (SMILES) | IC50 (BALB/3T3) [nM] | IC50 [1] [nM] | IC50 (A549 [2]) [nM] | IC50 (LoVo) [nM] | IC50 (MCF7 [3]) [nM] | also measured |
| --- | --- | --- | --- | --- | --- | --- |
| CCOC(=O)N[C@H]1CCc2c(Cl)c(OC)c(OC)c(OC)c2-c2ccc(SC)c(=O)cc21 | 8 | 8 | 8 | 8 | 8 | – |
| COc1cc2c(c(OC)c1OC)-c1ccc(NCCCC(=O)N[C@@H](CC(C)C)C(=O)OC3CCCC3)c(=O)cc1[C@@H](NC(C)=O)CC2 | – | – | – | – | – | IC50 (HeLa): 1190 nM; metabolised at 2 h [4]: 18% |
| COc1cc2c(c(OC)c1OC)-c1ccc(NCCOC(=O)CCC(=O)OCCCO[N+](=O)[O-])c(=O)cc1[C@@H](NC(C)=O)CC2 | – | – | – | – | – | IC50 (MCF7 [5]): 40 nM; IC50 (A2780): 20 nM; IC50 (A549 [6]): 40 nM; IC50 (Bel-7402): 40 nM |
| COc1c(I)c2c(c(OC)c1OC)-c1ccc(SC)c(=O)cc1[C@@H](NC(C)=O)CC2 | 115 | 642 | 11 | 7 | 17 | – |
| CCN(CC)C(=O)N[C@H]1CCc2c(Cl)c(OC)c(OC)c(OC)c2-c2ccc(SC)c(=O)cc21 | 27 | 27 | 27 | 27 | 27 | IC50 [7]: 27 nM |
| CCNc1ccc2c(cc1=O)[C@@H](NC(C)=O)CCc1cc(OC)c(OC)c(OC)c1-2 | – | – | – | – | – | IC50 (P388): 29 nM |
| CCC(=O)N[C@H]1CCc2c(Cl)c(OC)c(OC)c(OC)c2-c2ccc(SC)c(=O)cc21 | 2 | 2 | 2 | 2 | 2 | IC50 [7]: 2 nM |
| COc1cc2c(c(O)c1OC)-c1ccc(OC)c(=O)cc1[C@@H](NC(C)=O)CC2 | – | – | – | – | – | IC50 (CCRF-CEM): 15 nM |
| COc1cc2c(c(OC(=O)C(C)C)c1OC)-c1ccc(OC)c(=O)cc1[C@@H](NC(C)=O)CC2 | – | – | – | – | – | IC50 (CCRF-CEM): 12 nM |
| COc1cc2c(c(OC)c1OC)-c1ccc(NCCOC(=O)CCC(=O)Oc3cccc(CO[N+](=O)[O-])c3)c(=O)cc1[C@@H](NC(C)=O)CC2 | – | – | – | – | – | IC50 (MCF7 [5]): 17 nM; IC50 (A2780): 20 nM; IC50 (A549 [6]): 17 nM; IC50 (Bel-7402): 17 nM |
| COc1c(Cl)c2c(c(OC)c1OC)-c1ccc(SC)c(=O)cc1[C@@H](NC(=O)OCC(F)(F)F)CC2 | 7 | 7 | 7 | 7 | 7 | – |
| COc1c(Cl)c2c(c(OC)c1OC)-c1ccc(SC)c(=O)cc1[C@@H](NC(=O)c1ccccc1)CC2 | 7 | 7 | 7 | 7 | 7 | IC50 [7]: 7 nM |
| COc1c(Cl)c2c(c(OC)c1OC)-c1ccc(SC)c(=O)cc1[C@@H](NC(=O)CCCCl)CC2 | 10 | 10 | 10 | 10 | 10 | IC50 [7]: 10 nM |
| CCCCNc1ccc2c(cc1=O)[C@@H](NC(C)=O)CCc1cc(OC)c(OC)c(OC)c1-2 | – | – | – | – | – | IC50 (P388): 240 nM |
| COc1cc2c(c(OCc3ccc(Cl)cc3)c1OC)-c1ccc(OC)c(=O)cc1[C@@H](NC(C)=O)CC2 | – | – | – | – | – | IC50 (CCRF-CEM): 12 nM |
| CCCOc1c(OC)c(OC)cc2c1-c1ccc(OC)c(=O)cc1[C@@H](NC(C)=O)CC2 | – | – | – | – | – | IC50 (CCRF-CEM): 12 nM |
| COc1c(Cl)c2c(c(OC)c1OC)-c1ccc(SC)c(=O)cc1[C@@H](NC(C)=O)CC2 | 22 | 111 | 22 | 22 | 22 | – |
| CCCCOC(=O)N[C@H]1CCc2c(Cl)c(OC)c(OC)c(OC)c2-c2ccc(SC)c(=O)cc21 | 20 | 20 | 20 | 20 | 20 | – |
| COc1c(Cl)c2c(c(OC)c1OC)-c1ccc(SC)c(=O)cc1[C@@H](NC(=O)OC(C)C)CC2 | 20 | 20 | 20 | 20 | 20 | – |
| CNc1ccc2c(cc1=O)[C@@H](NC(C)=O)CCc1cc(OC)c(OC)c(OC)c1-2 | – | – | – | – | – | IC50 (P388): 29 nM |
| COc1cc2c(c(OCc3cccc(Cl)c3)c1OC)-c1ccc(OC)c(=O)cc1[C@@H](NC(C)=O)CC2 | – | – | – | – | – | IC50 (CCRF-CEM): 12 nM |
| C=COc1c(OC)c(OC)cc2c1-c1ccc(OC)c(=O)cc1[C@@H](NC(C)=O)CC2 | – | – | – | – | – | IC50 (CCRF-CEM): 12 nM |
| COc1cc2c(c(OC)c1OC)-c1ccc(NCCOC(=O)CCC(=O)OCCCCCCO[N+](=O)[O-])c(=O)cc1[C@@H](NC(C)=O)CC2 | – | – | – | – | – | IC50 (MCF7 [5]): 40 nM; IC50 (A2780): 20 nM; IC50 (A549 [6]): 40 nM; IC50 (Bel-7402): 40 nM |
| COC(=O)N[C@H]1CCc2c(Cl)c(OC)c(OC)c(OC)c2-c2ccc(SC)c(=O)cc21 | 11 | 11 | 11 | 11 | 11 | – |

Reference: ChEMBL document CHEMBL4665675 (J Med Chem, 2020)
